Experimental data: patent US10426850B2, “Collagen mimetic peptides for targeting collagen strands for in vitro and in vivo imaging and therapeutic use” (The Johns Hopkins University, priority 2011, dated 2019)

Tests used:
intact type I collagen = target: T1, intact type I collagen (Rattus norvegicus, UniProt P02454+P02466); assay: Photo-triggered CMP binding assay on intact non-fibrillar collagen; conditions: intact collagens, before and after 37° C. incubation; UV-activated
T1 construct: type I rat tail, BD Science; purchased BD Science; host or cells: rat tail
T1 sequence (P02454 152-1207 limits assumed): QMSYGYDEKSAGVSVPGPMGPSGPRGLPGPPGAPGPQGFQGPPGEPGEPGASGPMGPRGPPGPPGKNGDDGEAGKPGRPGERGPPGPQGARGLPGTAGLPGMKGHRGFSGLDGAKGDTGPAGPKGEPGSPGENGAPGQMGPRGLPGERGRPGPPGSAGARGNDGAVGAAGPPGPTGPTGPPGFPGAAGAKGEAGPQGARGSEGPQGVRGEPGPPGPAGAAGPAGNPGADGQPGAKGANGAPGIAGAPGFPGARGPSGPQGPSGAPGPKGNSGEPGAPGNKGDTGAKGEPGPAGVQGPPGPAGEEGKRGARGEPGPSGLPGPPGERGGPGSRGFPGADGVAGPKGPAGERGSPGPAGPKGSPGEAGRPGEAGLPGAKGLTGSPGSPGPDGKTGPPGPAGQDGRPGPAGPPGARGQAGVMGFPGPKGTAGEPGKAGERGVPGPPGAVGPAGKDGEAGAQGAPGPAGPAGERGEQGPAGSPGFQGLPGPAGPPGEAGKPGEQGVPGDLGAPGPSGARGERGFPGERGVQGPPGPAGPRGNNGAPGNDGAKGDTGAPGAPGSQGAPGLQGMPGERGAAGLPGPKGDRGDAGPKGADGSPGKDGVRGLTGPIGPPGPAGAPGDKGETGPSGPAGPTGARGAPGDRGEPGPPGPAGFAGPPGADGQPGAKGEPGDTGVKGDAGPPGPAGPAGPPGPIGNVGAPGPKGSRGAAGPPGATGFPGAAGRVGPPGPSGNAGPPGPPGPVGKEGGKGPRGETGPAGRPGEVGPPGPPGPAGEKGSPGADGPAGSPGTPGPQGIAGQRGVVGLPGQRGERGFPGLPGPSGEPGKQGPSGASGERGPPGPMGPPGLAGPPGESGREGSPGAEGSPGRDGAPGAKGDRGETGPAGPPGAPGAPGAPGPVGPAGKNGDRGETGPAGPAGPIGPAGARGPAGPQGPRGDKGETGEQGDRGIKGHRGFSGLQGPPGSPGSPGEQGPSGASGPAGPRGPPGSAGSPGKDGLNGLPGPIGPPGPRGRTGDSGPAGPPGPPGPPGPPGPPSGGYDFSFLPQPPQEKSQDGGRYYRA
T1 sequence (P02466 86-1125 limits assumed): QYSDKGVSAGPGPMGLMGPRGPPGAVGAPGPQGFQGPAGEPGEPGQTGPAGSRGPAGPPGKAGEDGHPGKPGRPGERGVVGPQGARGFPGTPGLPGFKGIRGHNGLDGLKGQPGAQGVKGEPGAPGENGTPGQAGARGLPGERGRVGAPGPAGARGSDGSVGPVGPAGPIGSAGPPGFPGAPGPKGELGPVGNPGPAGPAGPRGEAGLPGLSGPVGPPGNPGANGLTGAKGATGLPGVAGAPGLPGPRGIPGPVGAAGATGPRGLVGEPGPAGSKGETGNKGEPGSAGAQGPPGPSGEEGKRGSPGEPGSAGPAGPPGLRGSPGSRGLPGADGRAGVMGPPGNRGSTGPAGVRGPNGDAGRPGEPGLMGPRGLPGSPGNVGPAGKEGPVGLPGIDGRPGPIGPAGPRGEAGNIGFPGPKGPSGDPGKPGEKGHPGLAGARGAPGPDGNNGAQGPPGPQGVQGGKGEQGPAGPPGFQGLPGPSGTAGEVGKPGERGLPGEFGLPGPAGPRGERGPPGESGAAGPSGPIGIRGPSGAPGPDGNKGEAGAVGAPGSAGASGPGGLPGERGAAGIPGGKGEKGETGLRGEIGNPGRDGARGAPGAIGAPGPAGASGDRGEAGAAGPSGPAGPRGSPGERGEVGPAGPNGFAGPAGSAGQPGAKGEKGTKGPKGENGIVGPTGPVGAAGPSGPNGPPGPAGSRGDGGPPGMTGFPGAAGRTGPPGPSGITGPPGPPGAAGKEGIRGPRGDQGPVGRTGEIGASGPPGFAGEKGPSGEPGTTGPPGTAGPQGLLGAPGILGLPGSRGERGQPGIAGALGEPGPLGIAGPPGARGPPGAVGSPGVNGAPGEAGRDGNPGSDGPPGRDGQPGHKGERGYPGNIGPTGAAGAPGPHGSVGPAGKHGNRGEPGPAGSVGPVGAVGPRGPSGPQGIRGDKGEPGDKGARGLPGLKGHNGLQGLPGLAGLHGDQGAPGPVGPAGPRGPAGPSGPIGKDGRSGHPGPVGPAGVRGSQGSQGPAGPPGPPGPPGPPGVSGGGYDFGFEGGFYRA
Experimental: MMP-1 digestion of type I collagen and CMP binding assays. ProMMP-1 (1 μg, EMD Millipore) was activated by p-aminophenylmercuric acetate (1.1 mM) in 132.5 μL of TNC buffer (50 mM Tris-HCl, 0.15 M NaCl, 5 mM CaCl2, 0.02% NaN3, pH 7.5) at 37° C. for 3 hr. Type I collagen (62.6 μg) was subsequently added to the MMP-1 solution and incubated at room temperature for at least 3 days. Digested products were analyzed by SDS-PAGE and circular dichroism spectroscopy (FIG. 12). Wells of nunc black 96-well maxisorp plate were charged with 50 μL of TNC buffer containing 0.5 M glycerol, and 100 μg/mL collagen or MMP-1 cleaved collagen, and incubated at room temperature. The collagen solutions used were either kept at room temperature (22° C.) or incubated at 37° C. for 1 minute just prior to coating. […] Wells were washed extensively with PBSB followed by fluorescence (ex: 489 nm, em: 533 nm) reading with a SpectraMax M-2 microplate reader (Molecular Devices). […] The background fluorescence of empty wells was subtracted from the raw fluorescence data. For estimating the amount of adsorbed protein, un-blocked collagen-coated wells were treated with 100 μM 5-(4,6-dichlorotriazinyl)aminofluorescein (DTAF, 50 μL, in 0.1 M sodium borate buffer) at room temperature for 3 hours, and the fluorescence (ex: 489 nm, em: 533 nm) of the well was measured after washing with 1×PBS. […]

[1] = test system: whole cell lysate of human umbilical vein endothelial cells (HUVEC); assay: SDS-PAGE staining by heat activated fluorescent CMP, cell lysate; type: binding; conditions: 6 μM
Experimental: To prepare MMP-1 cleaved collagen chain fragments, proMMP-1 (1 μg) was activated by p-aminophenylmercuric acetate (1.1 mM) in 132.5 μL of TNC buffer (50 mM Tris-HCl, 0.15 M NaCl, 5 mM CaCl2, 0.02% NaN3, pH 7.5) at 37° C. for 3 hr, after which type I collagen (62.6 μg) was added to the activated MMP-1 solution and incubated at room temperature for at least 3 days. To obtain the cell lysate, confluent HUVECs cultured in EGM-2 media at 37° C. were lysed with lysis buffer (25 mM Tris-HCl, 0.5% Triton X-100, 200 mM NaCl, 2 mM EDTA, phosphatase and protease inhibitors; Roche Applied Science). The lysate solution was spun at 15,000 g for 15 min and the supernatant was collected. The recombinant streptococcal collagen-like protein Scl2.28CL was expressed and characterized following the methods introduced by Mohs et al. (J. Biol. Chem. 282, 29757-29765 (2007)).
(§1) SDS-PAGE staining and imaging. Proteins were resolved on NuPAGE® Novex 4-12% bis-tris gels under denaturating conditions using an XCell SureLock™ Mini-Cell electrophoresis system (Life Technologies). […] The fluorescence intensities of the protein bands were quantified using GE ImageQuant™ TL software. After fluorescence imaging, all gels were further stained with coomassie brilliant blue (CB) G-250 (Bio-Rad) for 2-3 hr followed by washing, and imaging under white light illumination using a Gel Doc EQ system (BioRad).

complement factor C1q = target: T2, complement factor C1q (Homo sapiens, UniProt P02745+P02746+P02747); assay: SDS-PAGE staining of collagen-like protein C1q; type: binding; conditions: 6 μM, heat activated, 2 μg
T2 construct: Complement component C1q from human serum; purchased Sigma-Aldrich; host or cells: human serum
T2 sequence (P02745 23-245): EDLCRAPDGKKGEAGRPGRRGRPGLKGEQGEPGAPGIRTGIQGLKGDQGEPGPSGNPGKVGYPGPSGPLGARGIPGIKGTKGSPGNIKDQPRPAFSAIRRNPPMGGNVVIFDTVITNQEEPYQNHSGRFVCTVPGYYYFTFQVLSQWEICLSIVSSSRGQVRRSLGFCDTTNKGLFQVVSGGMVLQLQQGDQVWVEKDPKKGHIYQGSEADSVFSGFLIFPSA
T2 sequence (P02746 28-253): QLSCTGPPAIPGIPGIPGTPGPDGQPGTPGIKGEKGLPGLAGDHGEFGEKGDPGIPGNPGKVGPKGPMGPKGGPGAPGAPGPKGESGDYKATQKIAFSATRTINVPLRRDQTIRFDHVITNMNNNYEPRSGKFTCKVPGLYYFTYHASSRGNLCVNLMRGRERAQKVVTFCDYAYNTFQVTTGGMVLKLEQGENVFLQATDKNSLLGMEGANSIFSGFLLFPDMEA
T2 sequence (P02747 29-245): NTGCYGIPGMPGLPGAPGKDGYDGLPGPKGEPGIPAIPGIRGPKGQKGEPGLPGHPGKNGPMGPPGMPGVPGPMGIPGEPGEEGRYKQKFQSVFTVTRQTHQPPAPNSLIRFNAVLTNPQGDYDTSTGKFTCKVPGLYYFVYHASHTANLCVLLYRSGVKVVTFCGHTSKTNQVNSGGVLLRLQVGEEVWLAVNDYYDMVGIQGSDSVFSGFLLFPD
Source text: Acid soluble rat-tail type I collagen, bovine type II collagen, and mouse type IV collagen were purchased from BD Bioscience (San Jose, Calif.). Complement component C1q from human serum, fibronectin from bovine plasma, and laminin from Engelbreth-Holm-Swarm murine sarcoma basement membrane were purchased from Sigma-Aldrich. ProMMP-1, and p-aminophenylmercuric acetate were acquired from EMD millipore. Human umbilical vein endothelial cells (HUVECs) and EGM-2 cell growth media were obtained from Lonza (Walkersville, Md.). Precast NuPAGE® Novex 4-12% Bis-Tris Gel (1.0 mm, 12 well), Novex® Sharp unstained protein standard, and SDS-PAGE running buffer, sample buffer, and other SDS-PAGE reagents were purchased from Life Technologies.
as §1, with “Technologies). NuPAGE® MOPS SDS running buffer containing 50 mM MOPS, 50 mM Tris Base, 0.1% SDS, and 1 mM EDTA (pH 7.7) was used.” for “Technologies).”

Row | level of CMP binding (intact type I collagen) | Substance | staining of cell lysate protein bands [1] | staining of C1q chains (complement factor C1q)
1 | similarly low | CF-GGG-(GPO)4^NBGPO(GPO)4 [CF^NB(GPO)9] |  | 
2 |  | CF-GGG-(GPO)9 [CF(GPO)9] | no protein band was visualized | almost as effectively as collagens
